According to US20150191469A1, “COMPOUNDS AND METHODS FOR TREATING HIV” (priority 2012, published 2015):

System: HIV
Experiment: MT4 assay: antiviral HIV activity (cell protection, cell titer glo readout at 96 hours)
Assay type: cell-based
Settings: Human immunodeficiency virus 1, MT4, 96 h, MT4 cells, cell titer glo readout at 96 hours, 10 point dose response; read-out: HIV MT4 Assay IC50
Description: Antiviral HIV activity and cytotoxicity values for compounds of the invention from Table 1 were measured in parallel in the HTLV-1 transformed cell line MT-4 based on the method previously described (Hazen et al., 2007, In vitro antiviral activity of the novel, tyrosyl-based human immunodeficiency virus (HIV) type 1 protease inhibitor brecanavir (GW640385) in combination with other antiretrovirals and against a panel of protease inhibitor-resistant HIV (Hazen et al., “In vitro antiviral activity of the novel, tyrosyl-based human immunodeficiency virus (HIV) type 1 protease inhibitor brecanavir (GW640385) in combination with other antiretrovirals and against a panel of protease inhibitor-resistant HIV”, Antimicrob. Agents Chemother. 2007, 51: 3147-3154; and Pauwels et al., “Sensitive and rapid assay on MT-4 cells for the detection of antiviral compounds against the AIDS virus”, J. of Virological Methods 1987, 16: 171-185).
Luciferase activity was measured 96 hours later by adding a cell titer glo (Promega, Madison, Wis.). Percent inhibition of cell protection data was plotted relative to no compound control. Under the same condition, cytotoxicity of the compounds was determined using cell titer Glo™ (Promega, Madison, Wis.). IC50s were determined from a 10 point dose response curve using 3-4-fold serial dilution for each compound, which spans a concentration range >1000 fold.
These values are plotted against the molar compound concentrations using the standard four parameter logistic equation:
y=((Vmax*x̂n)/(K̂n+x̂n))+Y2
Y2=minimum y n=slope factor
Vmax=maximum y x=compound concentration [M]

IC50 [nM] | Compound
4.1 | Cc1nc2c(cc(-c3ccnc(-c4ccnc(N5CCN(C)CC5)c4)c3)n2C)c(-c2cc(F)c3c(c2C)CCCO3)c1[C@H](OC(C)(C)C)C(=O)O (atropisomer, axis not shown) [Example 30]
11 | Cc1ccc(-c2cc(-c3cc4c(-c5cc(F)c6c(c5C)CCCO6)c([C@H](OC(C)(C)C)C(=O)O)c(C)nc4n3C)ccn2)cc1 (atropisomer, axis not shown) [Example 31]
34.5 | Cc1nc2c(cc(-c3ccnc(C4=CCCCC4)c3)n2C)c(-c2cc(F)c3c(c2C)CCCO3)c1[C@H](OC(C)(C)C)C(=O)O (atropisomer, axis not shown) [Example 32]
7.2 | Cc1nc2c(cc(-c3ccnc(-c4cnc(N(C)C)nc4)c3)n2C)c(-c2cc(F)c3c(c2C)CCCO3)c1[C@H](OC(C)(C)C)C(=O)O (atropisomer, axis not shown) [Example 33]
4.2 | Cc1nc2c(cc(-c3ccnc(-c4ccc5nccn5c4)c3)n2C)c(-c2cc(F)c3c(c2C)CCCO3)c1[C@H](OC(C)(C)C)C(=O)O (atropisomer, axis not shown) [Example 34]
10.9 | Cc1nc2c(cc(-c3ccnc(-c4ccc5nnn(C)c5c4)c3)n2C)c(-c2cc(F)c3c(c2C)CCCO3)c1[C@H](OC(C)(C)C)C(=O)O (atropisomer, axis not shown) [Example 35]
8410 | Cc1nc2c(cc(-c3ccnc(-c4cnc(O)nc4)c3)n2C)c(-c2cc(F)c3c(c2C)CCCO3)c1[C@H](OC(C)(C)C)C(=O)O (atropisomer, axis not shown) [Example 36]
47.4 | Cc1nc2c(cc(-c3ccnc(-c4ccc5c(c4)C(C)(C)CO5)c3)n2C)c(-c2cc(F)c3c(c2C)CCCO3)c1[C@H](OC(C)(C)C)C(=O)O (atropisomer, axis not shown) [Example 37]
17.9 | Cc1nc2c(cc(-c3ccnc(C4=CCN(C)CC4)c3)n2C)c(-c2cc(F)c3c(c2C)CCCO3)c1[C@H](OC(C)(C)C)C(=O)O (atropisomer, axis not shown) [Example 38]
17.3 | Cc1nc2c(cc(-c3ccnc(-c4ccc5ccccc5c4)c3)n2C)c(-c2cc(F)c3c(c2C)CCCO3)c1[C@H](OC(C)(C)C)C(=O)O (atropisomer, axis not shown) [Example 39]
2.2 | Cc1nc2c(cc(-c3ccnc(-c4ccc5ncccc5c4)c3)n2C)c(-c2cc(F)c3c(c2C)CCCO3)c1[C@H](OC(C)(C)C)C(=O)O (atropisomer, axis not shown) [Example 40]
4.6 | Cc1nc2c(cc(-c3ccnc(-c4ccc5cnn(C)c5c4)c3)n2C)c(-c2cc(F)c3c(c2C)CCCO3)c1[C@H](OC(C)(C)C)C(=O)O (atropisomer, axis not shown) [Example 41]
3.2 | Cc1nc2c(cc(-c3ccnc(-c4ccc5c(c4C)NCCO5)c3)n2C)c(-c2cc(F)c3c(c2C)CCCO3)c1[C@H](OC(C)(C)C)C(=O)O (atropisomer, axis not shown) [Example 42]
72.9 | Cc1noc(C)c1-c1cc(-c2cc3c(-c4cc(F)c5c(c4C)CCCO5)c([C@H](OC(C)(C)C)C(=O)O)c(C)nc3n2C)ccn1 (atropisomer, axis not shown) [Example 43]
4.8 | Cc1nc2c(cc(-c3ccnc(-c4ccc(N5CCCC5)nc4)c3)n2C)c(-c2cc(F)c3c(c2C)CCCO3)c1[C@H](OC(C)(C)C)C(=O)O (atropisomer, axis not shown) [Example 45]
7.8 | Cc1nc2c(cc(-c3ccnc(-c4ccncc4)c3)n2C)c(-c2cc(F)c3c(c2C)CCCO3)c1[C@H](OC(C)(C)C)C(=O)O (atropisomer, axis not shown) [Example 46]
5.6 | Cc1nc2c(cc(-c3ccnc(-c4ccc5c(c4)CCN(C4COC4)C5)c3)n2C)c(-c2cc(F)c3c(c2C)CCCO3)c1[C@H](OC(C)(C)C)C(=O)O (atropisomer, axis not shown) [Example 47]
4.4 | Cc1nc2c(cc(-c3ccnc(-c4ccc5c(c4)CN(C4COC4)CC5)c3)n2C)c(-c2cc(F)c3c(c2C)CCCO3)c1[C@H](OC(C)(C)C)C(=O)O (atropisomer, axis not shown) [Example 48]
114 | Cc1nc2c(cc(-c3ccnc(-c4ccc(O)c(N)c4)c3)n2C)c(-c2cc(F)c3c(c2C)CCCO3)c1[C@H](OC(C)(C)C)C(=O)O (atropisomer, axis not shown) [Example 49]
8.7 | Cc1nc2c(cc(-c3ccnc(-c4ccc5c(c4)NCCO5)c3)n2C)c(-c2cc(F)c3c(c2C)CCCO3)c1[C@H](OC(C)(C)C)C(=O)O (atropisomer, axis not shown) [Example 50]
13.9 | COc1ncc(-c2cc(-c3cc4c(-c5cc(F)c6c(c5C)CCCO6)c([C@H](OC(C)(C)C)C(=O)O)c(C)nc4n3C)ccn2)cn1 (atropisomer, axis not shown) [Example 52]

Compound | IC50 [nM]
Cc1nc2c(cc(-c3ccnc(-c4ccc5c(cnn5C)c4)c3)n2C)c(-c2cc(F)c3c(c2C)NCCO3)c1[C@H](OC(C)(C)C)C(=O)O (atropisomer, axis not shown) [Example 3, (2S)-2-(tert-butoxy)-2-[4-(8-fluoro-5-methyl-3,4-dihydro-2H-1,4-benzoxazin-6-yl)-1,6-dimethyl-2-[2-(1-methyl-1H-indazol-5-yl)pyridin-4-yl]-1H-pyrrolo[2,3-b]pyridin-5-yl]acetic acid] | 1.9
Cc1nc2c(cc(-c3ccnc(-c4cnc5c(cnn5C)c4)c3)n2C)c(-c2ccc3c(c2C)CCCO3)c1[C@H](OC(C)(C)C)C(=O)O (atropisomer, axis not shown) [Example 4, (2S)-2-(tert-butoxy)-2-[1,6-dimethyl-2-(2-{1-methyl-1H-pyrazolo[3,4-b]pyridin-5-yl}pyridin-4-yl)-4-(5-methyl-3,4-dihydro-2H-1-benzopyran-6-yl)-1H-pyrrolo[2,3-b]pyridin-5-yl]acetic acid] | 1.6
Cc1nc2c(cc(-c3ccnc(-c4cccnc4)c3)n2C)c(-c2cc(F)c3c(c2C)CCCO3)c1[C@H](OC(C)(C)C)C(=O)O (atropisomer, axis not shown) [Example 6, (2S)-2-(tert-butoxy)-2-[4-(8-fluoro-5-methyl-3,4-dihydro-2H-1-benzopyran-6-yl)-1,6-dimethyl-2-[2-(pyridin-3-yl)pyridin-4-yl]-1H-pyrrolo[2,3-b]pyridin-5-yl]acetic acid] | 14.8
Cc1nc2c(cc(-c3ccnc(-c4ccc5c(c4)CCN5C)c3)n2C)c(-c2cc(F)c3c(c2C)CCCO3)c1[C@H](OC(C)(C)C)C(=O)O (atropisomer, axis not shown) [Example 8, (2S)-2-(tert-butoxy)-2-[4-(8-fluoro-5-methyl-3,4-dihydro-2H-1-benzopyran-6-yl)-1,6-dimethyl-2-[2-(1-methyl-2,3-dihydro-1H-indol-5-yl)pyridin-4-yl]-1H-pyrrolo[2,3-b]pyridin-5-yl]acetic acid] | 5.6
Cc1nc2c(cc(-c3ccnc(-c4cnn(C5CCOCC5)c4)c3)n2C)c(-c2cc(F)c3c(c2C)CCCO3)c1[C@H](OC(C)(C)C)C(=O)O (atropisomer, axis not shown) [Example 9, (2S)-2-(tert-butoxy)-2-[4-(8-fluoro-5-methyl-3,4-dihydro-2H-1-benzopyran-6-yl)-1,6-dimethyl-2-{2-[1-(oxan-4-yl)-1H-pyrazol-4-yl]pyridin-4-yl}-1H-pyrrolo[2,3-b]pyridin-5-yl]acetic acid] | 16.2
Cc1nc2c(cc(-c3ccnc(N4CCN(C)CC4)c3)n2C)c(-c2cc(F)c3c(c2C)CCCO3)c1[C@H](OC(C)(C)C)C(=O)O (atropisomer, axis not shown) [Example 10, (2S)-2-(tert-butoxy)-2-[4-(8-fluoro-5-methyl-3,4-dihydro-2H-1-benzopyran-6-yl)-1,6-dimethyl-2-[2-(4-methylpiperazin-1-yl)pyridin-4-yl]-1H-pyrrolo[2,3-b]pyridin-5-yl]acetic acid] | 30.3
Cc1nc2c(cc(C(=O)N3CCN(c4ccc5c(cnn5C)c4)CC3)n2C)c(-c2cc(F)c3c(c2C)CCCO3)c1[C@H](OC(C)(C)C)C(=O)O (atropisomer, axis not shown) [Example 11, (2S)-2-(tert-butoxy)-2-[4-(8-fluoro-5-methyl-3,4-dihydro-2H-1-benzopyran-6-yl)-1,6-dimethyl-2-{[4-(1-methyl-1H-indazol-5-yl)piperazin-1-yl]carbonyl}-1H-pyrrolo[2,3-b]pyridin-5-yl]acetic acid] | 14.8
Cc1nc2c(cc(-c3ccc(-c4ccc5c(cnn5C)c4)nc3)n2C)c(-c2cc(F)c3c(c2C)CCCO3)c1[C@H](OC(C)(C)C)C(=O)O (atropisomer, axis not shown) [Example 18, (2S)-2-(tert-butoxy)-2-[4-(8-fluoro-5-methyl-3,4-dihydro-2H-1-benzopyran-6-yl)-1,6-dimethyl-2-[6-(1-methyl-1H-indazol-5-yl)pyridin-3-yl]-1H-pyrrolo[2,3-b]pyridin-5-yl]acetic acid] | 26.3
Cc1nc2c(cc(-c3ccnc(N4CCN(C5COC5)CC4)c3)n2C)c(-c2cc(F)c3c(c2C)CCCO3)c1[C@H](OC(C)(C)C)C(=O)O (atropisomer, axis not shown) [Example 25, (2S)-2-(tert-butoxy)-2-[4-(8-fluoro-5-methyl-3,4-dihydro-2H-1-benzopyran-6-yl)-1,6-dimethyl-2-{2-[4-(oxetan-3-yl)piperazin-1-yl]pyridin-4-yl}-1H-pyrrolo[2,3-b]pyridin-5-yl]acetic acid] | 10.6
